# Measured values: US9108983B2, “Pyrrole compounds, a process for their preparation and pharmaceutical compositions containing them” (LES LABORATOIRES SERVIER, priority 2013, dated 2015)
# Where a name gives a salt, the structure may show the parent alone. Read-outs that look alike come from different tables or passages of the source.
# Key:
# [1] = biological target: Bcl-2 protein (histag-Bcl-2, UniProtKB P10415) (Homo sapiens (Human), UniProt P10415); assay: Inhibition of Bcl-2 by the fluorescence polarisation technique; assay type: binding; conditions: incubation for 2 hours, read-out: IC50 (nM) Bcl-2 FP
# Method: The fluorescence polarisation tests were carried out on microplates (384 wells). The Bcl-2 protein, labelled (histag-Bcl-2 such that Bcl-2 corresponds to the UniProtKB® primary accession number: P10415), at a final concentration of 2.50×10^−8 M, is mixed with a fluorescent peptide (Fluorescein-[…]), at a final concentration of 1.00×10^−8 M in a buffer solution (Hepes 10 mM, NaCl 150 mM, Tween20 0.05%, pH 7.4), in the presence or absence of increasing concentrations of test compounds. After incubation for 2 hours, the fluorescence polarisation is measured.
# [2] = system: RS4;11 leukaemia tumour line; assay: In vitro cytotoxicity (Microculture Tetrazolium Assay); assay type: cell-based; conditions: RS4;11 cells, exposed for 48 hours, cell viability, read-out: IC50 (nM) MTT RS4;11
# Method: The cytotoxicity studies were carried out on the RS4;11 leukaemia tumour line.
# The cells are distributed onto microplates and exposed to the test compounds for 48 hours.
# The cell viability is then quantified by a colorimetric assay, the Microculture Tetrazolium Assay (Cancer Res., 1987, 47, 939-942).
# Sequence of Bcl-2 protein (P10415 whole entry): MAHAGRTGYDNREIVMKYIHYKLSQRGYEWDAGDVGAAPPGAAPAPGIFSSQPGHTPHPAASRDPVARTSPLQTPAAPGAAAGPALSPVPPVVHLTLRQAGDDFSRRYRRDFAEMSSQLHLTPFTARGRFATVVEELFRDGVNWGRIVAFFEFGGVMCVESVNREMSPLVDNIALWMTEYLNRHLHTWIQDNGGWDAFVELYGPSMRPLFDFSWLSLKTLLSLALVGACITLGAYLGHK
Structure (SMILES),IC50 [1] [nM],"IC50 ([2]; Homo sapiens, RS4-11, 48 h) [nM]",also measured
"Cc1c(C(=O)N(c2ccc(O)cc2)c2ccc(C#N)s2)cc(-c2cc(Cl)ccc2C(=O)N2Cc3ccccc3C[C@H]2CN2CCOCC2)n1C [Example 436, 5-(5-Chloro-2-{[(3S)-3-(morpholin-4-ylmethyl)-3,4-dihydroisoquinolin-2(1H)-yl]carbonyl}phenyl)-N-(5-cyanothiophen-2-yl)-N-(4-hydroxyphenyl)-1,2-dimethyl-1H-pyrrole-3-carboxamide hydrochloride]",49.1,338,–
"Cc1c(C(=O)N(c2ccc(O)cc2)c2cnc3c(c2)CCN3C)cc(-c2cc(Cl)ccc2C(=O)N2Cc3ccccc3C[C@H]2CN2CCOCC2)n1C [Example 445, 5-(5-Chloro-2-{[(3S)-3-(morpholin-4-ylmethyl)-3,4-dihydroisoquinolin-2(1H)-yl]carbonyl}phenyl)-N-(4-hydroxyphenyl)-1,2-dimethyl-N-[1-(trideuteriomethyl)-2,3-dihydro-H-pyrrolo[2,3-b]pyridin-5-yl]-1H-pyrrole-3-carboxamide hydrochloride]",–,–,IC50 ([1]; hydrochloride): 2 nM; IC50 ([2]; hydrochloride): 19 nM
"Cc1c(C(=O)N(c2ccccc2)c2ccc(O)cc2)cc(-c2cc3c(cc2C(=O)N2Cc4ccccc4C[C@H]2C)OCO3)n1C [Example 43, N-(4-Hydroxyphenyl)-1,2-dimethyl-5-(6-{[(3R)-3-methyl-3,4-dihydroisoquinolin-2(1H)-yl]carbonyl}-1,3-benzodioxol-5-yl)-N-phenyl-1H-pyrrole-3-carboxamide]",5.1,28.9,–
"COc1ccc(C(=O)N2Cc3ccccc3C[C@H]2CN2CCOCC2)c(-c2cc(C(=O)N(c3ccccc3)c3ccc(O)cc3)c(C)n2C)c1 [Example 19, N-(4-Hydroxyphenyl)-5-(5-methoxy-2-{[(3S)-3-(morpholin-4-ylmethyl)-3,4-dihydroisoquinolin-2(1H)-yl]carbonyl}phenyl)-1,2-dimethyl-N-phenyl-. H-pyrrole-3-carboxamide hydrochloride]",6,–,IC50 [2]: 65.5 nM
"Cc1c(C(=O)N(c2ccc(O)cc2)c2cnc(F)cn2)cc(-c2cc(Cl)ccc2C(=O)N2Cc3ccccc3C[C@H]2CN2CCOCC2)n1C [Example 446, 5-(5-Chloro-2-{[(3S)-3-(morpholin-4-ylmethyl)-3,4-dihydroisoquinolin-2(1H)-yl]carbonyl}phenyl)-N-(5-fluoropyrazin-2-yl)-N-(4-hydroxyphenyl)-1,2-dimethyl-1H-pyrrole-3-carboxamide hydrochloride]",7.8,249,–
"CN1CCN(C[C@@H]2Cc3ccccc3CN2C(=O)c2cc3c(cc2-c2cc(C(=O)N(c4ccc(O)cc4)c4ccc5c(ccn5C)c4)cn2C)OCO3)CC1 [Example 9, N-(4-Hydroxyphenyl)-1-methyl-N-(1-methyl-1H-indol-5-yl)-5-(6-{[(3S)-3-[(4-methylpiperazin-1-yl)methyl]-3,4-dihydroisoquinolin-2(1H)-yl]carbonyl}-1,3-benzodioxol-5-yl)-1H-pyrrole-3-carboxamide hydrochloride]",22.4,87.5,–
"Cc1c(C(=O)N(c2ccc(O)cc2)c2cnn(C3CCOC3)c2)cc(-c2cc(Cl)ccc2C(=O)N2Cc3ccccc3C[C@H]2CCCN2CCOCC2)n1C (stereo partly drawn) [Example 460, 5-(5-Chloro-2-{[(3R)-3-[3-(morpholin-4-yl)propyl]-3,4-dihydroisoquinolin-2(1H)-yl]carbonyl}phenyl)-N-(4-hydroxyphenyl)-1,2-dimethyl-N-[1-(tetrahydrofuran-3-yl)-1H-pyrazol-4-yl]-1H-pyrrole-3-carboxamide hydrochloride]",2.8,22.9,–
"Cc1c(C(=O)N(c2ccc(O)c(F)c2)c2cnn(C)c2)cc(-c2cc3c(cc2C(=O)N2Cc4ccccc4C[C@H]2CN2CCOCC2)OCO3)n1C [Example 396, N-(3-Fluoro-4-hydroxyphenyl)-1,2-dimethyl-N-(1-methyl-1H-pyrazol-4-yl)-5-(6-{[(3S)-3-(morpholin-4-ylmethyl)-3,4-dihydroisoquinolin-2(1H)-yl]carbonyl}-1,3-benzodioxol-5-yl)-1H-pyrrole-3-carboxamide hydrochloride]",15.7,116,–
"Cc1c(C(=O)N(c2ccc(O)cc2)c2cnc(OCCN3CCOCC3)nc2)cc(-c2cc(Cl)ccc2C(=O)N2Cc3ccccc3C[C@H]2C)n1C [Example 456, 5-(5-Chloro-2-{[(3R)-3-methyl-3,4-dihydroisoquinolin-2(1H)-yl]-carbonyl}phenyl)-N-(4-hydroxyphenyl)-1,2-dimethyl-N-{2-[2-(morpholin-4-yl)-ethoxy]pyrimidin-5-yl}-1H-pyrrole-3-carboxamide hydrochloride]",2.7,80.6,–
"Cc1c(C(=O)N(C)c2ccc(O)cc2)cc(-c2ccc(CNC(=O)Oc3ccccc3)cc2C(=O)N2Cc3ccccc3C[C@H]2C)n1C [Example 32, Phenyl (4-{4-[(4-hydroxyphenyl)(methyl)carbamoyl]-1,5-dimethyl-1H-pyrrol-2-yl}-3-{[(3R)-3-methyl-3,4-dihydroisoquinolin-2(1H)-yl]carbonyl}benzyl)-carbamate]",13.3,–,IC50 ([2]; Homo sapiens): 240 nM
"Cc1c(C(=O)N(C)c2ccc(O)cc2)cc(-c2ccc(CNC(=O)COc3ccccc3)cc2C(=O)N2Cc3ccccc3C[C@H]2C)n1C [Example 35, N-(4-Hydroxyphenyl)-N,1,2-trimethyl-5-(2-{[(3R)-3-methyl-3,4-dihydroisoquinolin-2(1H)-yl]carbonyl}-4-{[(phenoxyacetyl)amino]methyl}phenyl)-1H-pyrrole-3-carboxamide]",50,560,–
"CCn1c(C#N)cc(N(C(=O)c2cc(-c3cc(Cl)ccc3C(=O)N3Cc4ccccc4C[C@H]3CN3CCOCC3)n(C)c2C)c2ccc(O)cc2)c1C [Example 459, 5-(5-Chloro-2-{[(3S)-3-(morpholin-4-ylmethyl)-3,4-dihydroisoquinolin-2(1H)-yl]carbonyl}phenyl)-N-(5-cyano-1-ethyl-2-methyl-1H-pyrrol-3-yl)-N-(4-hydroxyphenyl)-1,2-dimethyl-1H-pyrrole-3-carboxamide hydrochloride]",2.5,5.93,–
"Cc1c(C(=O)N(c2ccc(O)cc2)c2cnn(C)c2)cc(-c2cc(Cl)ccc2C(=O)N2Cc3ccccc3C[C@H]2C)n1CCN1CCOCC1 [Example 411, 5-(5-Chloro-2-{[(3R)-3-methyl-3,4-dihydroisoquinolin-2(1H)-yl]carbonyl}phenyl)-N-(4-hydroxyphenyl)-2-methyl-N-(1-methyl-1H-pyrazol-4-yl)-1-[2-(morpholin-4-yl)ethyl]-1H-pyrrole-3-carboxamide hydrochloride]",5.5,32.8,–
"Cc1c(C(=O)N(c2ccc(O)cc2)c2cnc3c(ccn3C)c2)cc(-c2cc(CNC(=O)COc3ccccc3)ccc2C(=O)N2Cc3ccccc3C[C@H]2C)n1C [Example 54, N-(4-Hydroxyphenyl)-1,2-dimethyl-5-(2-{[(3R)-3-methyl-3,4-dihydroisoquinolin-2(1H)-yl]carbonyl}-5-{[(phenoxyacetyl)amino]methyl}phenyl)-N-(1-methyl-1H-pyrrolo[2,3-b]pyridin-5-yl)-1H-pyrrole-3-carboxamide]",18,30.5,–
"Cc1c(C(=O)N(c2ccc(O)cc2)c2cnc3c(c2)CCN3C)cc(-c2cc(F)ccc2C(=O)N2Cc3ccccc3C[C@H]2CN2CCOCC2)n1C [Example 434, 5-(5-Fluoro-2-{[(3S)-3-(morpholin-4-ylmethyl)-3,4-dihydroisoquinolin-2(1H)-yl]carbonyl}phenyl)-N-(4-hydroxyphenyl)-1,2-dimethyl-N-(1-methyl-2,3-dihydro-1H-pyrrolo[2,3-b]pyridin-5-yl)-1H-pyrrole-3-carboxamide hydrochloride]",3.5,45.7,–
"Cc1c(C(=O)N(c2ccc(O)cc2)c2cnn(C3CCOC3)c2)cc(-c2cc(F)ccc2C(=O)N2Cc3ccccc3C[C@H]2CN2CCOCC2)n1C (single isomer, unassigned) [Example 403, 5-(5-Fluoro-2-{[(3S)-3-(morpholin-4-ylmethyl)-3,4-dihydroisoquinolin-2(1H)-yl]carbonyl}phenyl)-N-(4-hydroxyphenyl)-1,2-dimethyl-N-{1-[(3R or S)-tetrahydrofuran-3-yl]-1H-pyrazol-4-yl}-1H-pyrrole-3-carboxamide hydrochloride]",24.2,–,IC50 ([2]; hydrochloride): 289 nM
"Cc1c(C(=O)N(c2ccccc2)c2ccc(O)cc2)cc(-c2cc3c(cc2C(=O)N2Cc4ccccc4C[C@H]2CN2CCOCC2)OCCO3)n1C [Example 22, N-(4-Hydroxyphenyl)-1,2-dimethyl-5-(7-{[(3S)-3-(morpholin-4-ylmethyl)-3,4-dihydroisoquinolin-2(1H)-yl]carbonyl}-2,3-dihydro-1,4-benzodioxin-6-yl)-N-phenyl-1H-pyrrole-3-carboxamide hydrochloride]",6.6,45.7,–
"Cc1c(C(=O)N(c2ccc(O)cc2)c2ccc(F)c(C#N)c2)cc(-c2cc(Cl)ccc2C(=O)N2Cc3ccccc3C[C@H]2CN2CCOCC2)n1C [Example 401, 5-(5-Chloro-2-{[(3S)-3-(morpholin-4-ylmethyl)-3,4-dihydroisoquinolin-2(1H)-yl]carbonyl}phenyl)-N-(3-cyano-4-fluorophenyl)-N-(4-hydroxyphenyl)-1,2-dimethyl-1H-pyrrole-3-carboxamide hydrochloride]",8,24.3,–
